We go through 31 molecules from ChEMBL document CHEMBL1147141, “Potent nonpeptide antagonists of the bradykinin B1 receptor: structure-activity relationship studies with novel diaminochroman carboxamides” (J Med Chem, 2007).

The target of test [1] is T1, B1 bradykinin receptor (Homo sapiens, UniProt P46663).
T1 sequence (P46663 whole entry): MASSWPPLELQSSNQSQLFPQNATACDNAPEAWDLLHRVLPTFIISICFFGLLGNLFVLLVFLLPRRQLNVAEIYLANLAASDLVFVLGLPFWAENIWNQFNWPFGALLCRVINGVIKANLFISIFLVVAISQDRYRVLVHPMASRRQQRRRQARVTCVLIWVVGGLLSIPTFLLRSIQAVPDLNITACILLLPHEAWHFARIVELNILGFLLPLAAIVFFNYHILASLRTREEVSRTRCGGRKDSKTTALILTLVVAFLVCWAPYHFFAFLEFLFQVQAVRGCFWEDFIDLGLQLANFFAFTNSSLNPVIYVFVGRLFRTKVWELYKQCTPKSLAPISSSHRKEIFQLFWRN
The test is described as follows: Displacement of [3H]DAK from human bradykinin B1 receptor expressed in CHOD cells. Format: cell-based. On the technique in general: Loss of bound radioactivity is the signal in a displacement assay; it reports binding, not function.

The target in test [2] is T1, B1 bradykinin receptor. The test is described as follows: Antagonist activity at human bradykinin B1 receptor expressed in CHOD cells assessed as effect on DAK-induced calcium flux. Format: functional, cell-based.

In general, Ki refers to the dissociation constant of the complex between target and ligand, obtained from inhibition or displacement. A low value points to higher affinity. As a reminder, the IC50 is the concentration needed to halve the response being measured.

On to `NCc1ccc2c(c1)OCC[C@H]2NC(=O)C[C@@H](NS(=O)(=O)c1ccc2ccccc2c1)c1ccccc1`, for which the inhibitory constant (Ki) in test [1] was 308 nM (antagonist). Also, in test [2], the 50% inhibitory concentration (IC50) is recorded as 352 nM (antagonist).

Turning to `O=C(C[C@@H](NS(=O)(=O)c1cccc(C(F)(F)F)c1)c1ccc(F)cc1)N[C@@H]1CCOc2cc(CNC3CCC3)ccc21`, the Ki in test [1] is reported as 10 nM (antagonist). For the same molecule, in test [2], the IC50 was 46.2 nM (antagonist).

With `CC(C)(C)NCc1ccc2c(c1)OCC[C@H]2NC(=O)C[C@@H](NS(=O)(=O)c1cccc(C(F)(F)F)c1)c1ccc(C#N)cc1`, in test [1], the Ki is listed as 120 nM (antagonist). The IC50 in test [2] is 566 nM (antagonist).

For `CN(C)Cc1ccc2c(c1)OCC[C@H]2NC(=O)C[C@@H](NS(=O)(=O)c1ccc2ccccc2c1)c1ccccc1`, the inhibition constant (Ki) in test [1] is 84.8 nM (antagonist). The IC50 in test [2] is given as 167 nM (antagonist).

Turning to `CC(C)(C)NCc1ccc2c(c1)OCC[C@H]2NC(=O)C[C@@H](NS(=O)(=O)c1ccc(F)c(Cl)c1)c1ccccc1`, in test [1], the inhibitory constant (Ki) is 25.2 nM (antagonist). For the same molecule, the IC50 in test [2] was 203 nM (antagonist).

Regarding `CC(C)(C)NCc1ccc2c(c1)OCC[C@H]2NC(=O)C[C@@H](NS(=O)(=O)c1cccc(C(F)(F)F)c1)c1ccccc1`, the inhibitory constant (Ki) in test [1] was 17.9 nM (antagonist). Moreover, the half-inhibitory concentration (IC50) in test [2] is recorded as 78.4 nM (antagonist).

In the case of `CC(C)NCc1ccc2c(c1)OCC[C@H]2NC(=O)C[C@@H](NS(=O)(=O)c1ccc2ccccc2c1)c1ccccc1`, the Ki in test [1] was 8.3 nM (antagonist). Besides, the IC50 in test [2] is 45.9 nM (antagonist).

`CC(C)(C)NCc1ccc2c(c1)OCC[C@H]2NC(=O)C[C@@H](NS(=O)(=O)c1ccc(Cl)c(Cl)c1)c1ccccc1`: the Ki in test [1] is recorded as 7.6 nM (antagonist). Also, the half-inhibitory concentration (IC50) in test [2] is given as 24.3 nM (antagonist).

For the molecule `O=C(C[C@@H](NS(=O)(=O)c1ccc2ccccc2c1)c1ccccc1)N[C@@H]1CCOc2cc(CNC3CCCCC3)ccc21`, in test [1], the Ki was 21.8 nM (antagonist). Also, the IC50 in test [2] is reported as 69.9 nM (antagonist).

As for `CC(C)(C)NCc1ccc2c(c1)OCC[C@H]2NC(=O)C[C@@H](NS(=O)(=O)c1ccc(C(C)(C)C)cc1)c1ccccc1`, the Ki in test [1] is reported as 24.8 nM (antagonist). Also, in test [2], the 50% inhibitory concentration (IC50) is reported as 60.9 nM (antagonist).

On to `Cc1c(Cl)cccc1S(=O)(=O)N[C@H](CC(=O)N[C@@H]1CCOc2cc(CNC(C)(C)C)ccc21)c1ccccc1`, for which, in test [1], the inhibition constant (Ki) is 40.6 nM (antagonist). The concentration for half-maximal inhibition (IC50) in test [2] is 207 nM (antagonist).

For `CC(C)(C)NCc1ccc2c(c1)OCC[C@H]2NC(=O)C[C@@H](NS(=O)(=O)c1ccc(C(F)(F)F)cc1)c1ccccc1`, the inhibitory constant (Ki) in test [1] is 77.6 nM (antagonist). In addition, the 50% inhibitory concentration (IC50) in test [2] is 330 nM (antagonist).

With `O=C(C[C@@H](NS(=O)(=O)c1ccc2ccccc2c1)c1ccccc1)N[C@@H]1CCOc2cc(CN3CCOCC3)ccc21`, the Ki in test [1] is given as 3.7 nM (antagonist). Besides, in test [2], the IC50 is reported as 10.9 nM (antagonist).

In the case of `CC(C)(C)NCc1ccc2c(c1)OCC[C@H]2NC(=O)C[C@@H](NS(=O)(=O)c1ccccc1C(F)(F)F)c1ccccc1`, the inhibitory constant (Ki) in test [1] is 367 nM (antagonist). In addition, the concentration for half-maximal inhibition (IC50) in test [2] is 2000 nM (antagonist).

For `CNCc1ccc2c(c1)OCC[C@H]2NC(=O)C[C@@H](NS(=O)(=O)c1ccc2ccccc2c1)c1ccccc1`, the Ki in test [1] is listed as 138 nM (antagonist). Further, the IC50 in test [2] is 212 nM (antagonist).

With `O=C(C[C@@H](NS(=O)(=O)c1ccc2ccccc2c1)c1ccccc1)N[C@@H]1CCOc2cc(CN3CCCC3)ccc21`, in test [1], the Ki is 5.7 nM (antagonist). The IC50 in test [2] is 14.8 nM (antagonist).

Take `CC(C)CNCc1ccc2c(c1)OCC[C@H]2NC(=O)C[C@@H](NS(=O)(=O)c1ccc2ccccc2c1)c1ccccc1`: the Ki in test [1] is 5 nM (antagonist). For the same molecule, in test [2], the half-maximal inhibitory concentration (IC50) is listed as 10.5 nM (antagonist).

With `COCCNCc1ccc2c(c1)OCC[C@H]2NC(=O)C[C@@H](NS(=O)(=O)c1ccc(Cl)c(Cl)c1)c1ccc(F)cc1`, in test [1], the Ki is 6.7 nM (antagonist). Further, in test [2], the IC50 is reported as 9.4 nM (antagonist).

Turning to `CCNCc1ccc2c(c1)OCC[C@H]2NC(=O)C[C@@H](NS(=O)(=O)c1ccc2ccccc2c1)c1ccccc1`, the inhibitory constant (Ki) in test [1] is given as 8.9 nM (antagonist). Further, the concentration for half-maximal inhibition (IC50) in test [2] is 60.2 nM (antagonist).

As for `CC(C)(C)NCc1ccc2c(c1)OCC[C@H]2NC(=O)C[C@@H](NS(=O)(=O)c1ccc2ccccc2c1)c1ccccc1`, the Ki in test [1] is 5.4 nM (antagonist). In addition, the concentration for half-maximal inhibition (IC50) in test [2] is 17 nM (antagonist).

For `CC(C)(C)NCc1ccc2c(c1)OCC[C@H]2NC(=O)C[C@@H](NS(=O)(=O)c1ccc(Cl)cc1Cl)c1ccccc1`, the inhibition constant (Ki) in test [1] is recorded as 127 nM (antagonist). Moreover, the IC50 in test [2] is on record as 255 nM (antagonist).

As for `O=C(C[C@@H](NS(=O)(=O)c1ccc2ccccc2c1)c1ccccc1)N[C@@H]1CCOc2cc(CO)ccc21`, the inhibition constant Ki in test [1] was > 50000 nM. Further, the IC50 in test [2] was > 4000 nM.

With `CC(C)(C)NCc1ccc2c(c1)OCC[C@H]2NC(=O)C[C@@H](NS(=O)(=O)c1cccc(Cl)c1)c1ccccc1`, the Ki in test [1] was 27.7 nM (antagonist). Besides, the IC50 in test [2] is recorded as 113 nM (antagonist).

Consider `CC(C)(C)NCc1ccc2c(c1)OCC[C@H]2NC(=O)C[C@@H](NS(=O)(=O)c1ccc(Cl)cc1)c1ccccc1`, for which, in test [1], the Ki is listed as 132 nM (antagonist). The IC50 in test [2] is 580 nM (antagonist).

Take `CC(C)CNCc1ccc2c(c1)OCC[C@H]2NC(=O)C[C@@H](NS(=O)(=O)c1cccc(C(F)(F)F)c1)c1ccc(F)cc1`: in test [1], the Ki is on record as 5.9 nM (antagonist). Moreover, the IC50 in test [2] is listed as 14.8 nM (antagonist).

As to `CC(C)(C)NCc1ccc2c(c1)OCC[C@H]2NC(=O)C[C@@H](NS(=O)(=O)c1cc(Cl)c(F)cc1F)c1ccccc1`, the inhibition constant Ki in test [1] was 20.6 nM (antagonist). Also, the IC50 in test [2] is given as 127 nM (antagonist).

For the molecule `CC(C)NCc1ccc2c(c1)OCC[C@H]2NC(=O)C[C@@H](NS(=O)(=O)c1cccc(C(F)(F)F)c1)c1ccc(F)cc1`, the Ki in test [1] is 4.7 nM (antagonist). For the same molecule, in test [2], the IC50 was 20.1 nM (antagonist).

On to `CC(C)(C)NCc1ccc2c(c1)OCC[C@H]2NC(=O)C[C@@H](NS(=O)(=O)c1ccc(Cl)c(Cl)c1)c1ccc(F)cc1`, for which the Ki in test [1] is 5 nM (antagonist). In test [2], the IC50 is 9.6 nM (antagonist).

Turning to `CC(C)(C)NCc1ccc2c(c1)OCC[C@H]2NC(=O)C[C@@H](NS(=O)(=O)c1ccccc1Cl)c1ccccc1`, the Ki in test [1] was 393 nM (antagonist). In addition, in test [2], the IC50 was 2030 nM (antagonist).

In the case of `CC(C)(C)NCc1ccc2c(c1)OCC[C@H]2NC(=O)C[C@@H](NS(=O)(=O)c1cccc(C(F)(F)F)c1)c1ccc(F)cc1`, the Ki in test [1] is reported as 4.8 nM (antagonist). In test [2], the half-maximal inhibitory concentration (IC50) was 9.9 nM (antagonist).

As for `C[C@@H]1CCC[C@H](C)N1Cc1ccc2c(c1)OCC[C@H]2NC(=O)C[C@@H](NS(=O)(=O)c1ccc2ccccc2c1)c1ccccc1`, the inhibition constant Ki in test [1] is 13.4 nM (antagonist). The IC50 in test [2] is on record as 96.3 nM (antagonist).
